Reference: ChEMBL document CHEMBL4425118, “Potential Treatment for Neuropsychiatry Disorders with TRPC5 Modulators” (ACS Med Chem Lett, 2016)

Legend:
[1] = biological target: T1, Short transient receptor potential channel 5 (Homo sapiens, UniProt Q9UL62); assay: Inhibition of TRPC5 (unknown origin) transfected in HEK293/TREx cells assessed as blocking of inward/outward currents after 20 to 48 hrs in presence of LaCl3 by patch clamp assay; type: cell-based
T1 sequence (Q9UL62 whole entry): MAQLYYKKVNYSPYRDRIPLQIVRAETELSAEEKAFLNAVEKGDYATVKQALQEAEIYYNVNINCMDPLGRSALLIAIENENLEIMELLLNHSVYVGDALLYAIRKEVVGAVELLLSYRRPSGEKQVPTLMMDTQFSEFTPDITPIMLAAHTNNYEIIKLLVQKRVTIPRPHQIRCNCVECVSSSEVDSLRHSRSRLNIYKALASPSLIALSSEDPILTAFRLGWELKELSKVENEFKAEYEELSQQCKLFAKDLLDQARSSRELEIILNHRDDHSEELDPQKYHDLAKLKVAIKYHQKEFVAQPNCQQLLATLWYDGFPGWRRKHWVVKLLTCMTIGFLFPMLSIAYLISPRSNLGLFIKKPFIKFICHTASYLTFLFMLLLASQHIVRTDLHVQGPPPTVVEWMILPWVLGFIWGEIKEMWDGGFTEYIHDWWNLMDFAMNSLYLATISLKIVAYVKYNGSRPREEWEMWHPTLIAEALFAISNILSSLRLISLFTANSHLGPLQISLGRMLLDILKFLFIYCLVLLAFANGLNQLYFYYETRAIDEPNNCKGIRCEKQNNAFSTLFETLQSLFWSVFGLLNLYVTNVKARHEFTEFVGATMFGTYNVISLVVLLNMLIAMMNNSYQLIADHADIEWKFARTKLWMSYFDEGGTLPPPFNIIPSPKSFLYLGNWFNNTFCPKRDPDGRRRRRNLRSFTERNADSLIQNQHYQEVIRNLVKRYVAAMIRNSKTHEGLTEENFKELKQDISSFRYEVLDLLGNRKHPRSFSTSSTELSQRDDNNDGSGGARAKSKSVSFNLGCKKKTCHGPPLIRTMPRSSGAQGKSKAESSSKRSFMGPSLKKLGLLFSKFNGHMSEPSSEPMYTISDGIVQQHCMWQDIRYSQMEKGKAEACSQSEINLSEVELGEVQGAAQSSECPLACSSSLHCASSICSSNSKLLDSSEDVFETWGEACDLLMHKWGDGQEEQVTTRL

[2] = biological target: T1, Short transient receptor potential channel 5; assay: Inhibition of TRPC5 (unknown origin) transfected in HEK293/TREx cells assessed as reduction of rise in intracellular Ca2+ concentration after 60 to 80 mins by Fluo4 cell-based fluorescence assay

Row | SMILES | IC50 [1] | IC50 [2]
1 | Cn1c(=O)n(CCCO)c(=O)c2c(Cc3ccccc3)c(-c3cccc(OC(F)(F)F)c3)ccc21 | 5.3 nM | –
2 | COc1ccc2c(c1Cc1ccc(F)cc1)c(=O)n(CCCO)c(=O)n2C | 8.37 nM | > 100 nM
3 | COc1ccc2c(c1Cc1ccccc1)c(=O)n(CCCO)c(=O)n2C | 23.3 nM | –
4 | CC(C)Oc1ccc2c(c1Cc1ccc(F)cc1)c(=O)n(CCCO)c(=O)n2C | 9 nM | 2.64 nM
5 | CCCCOc1ccc2c(c1Cc1ccc(F)cc1)c(=O)n(CCCO)c(=O)n2C | < 1 nM | < 1 nM
6 | Cn1c(=O)n(CCCO)c(=O)c2c(Cc3ccccc3)c(Oc3cccc(OC(F)(F)F)c3)ccc21 | < 1 nM | 2.69 nM
